A word on the Ki: it is a measure of affinity in units of concentration, obtained from inhibition or displacement. Lower therefore signals tighter binding. One may read the pKa as the pH at which an ionisable group is half protonated. Read a low pKa as a group that gives up its proton readily. What is called IC50 is the concentration that inhibits the measured activity by half. The IC90 is the concentration needed for an effect of 90%. Usually inhibition stands for the share of the control response that was lost under treatment. Lower therefore signals little suppression.

SMILES strings stand for the structures.

The results in this text go back to ChEMBL document CHEMBL2203010, “The discovery of tropane-derived CCR5 receptor antagonists” (Chem Biol Drug Des, 2006).

For data set [1], the target named is T1, Voltage-gated inwardly rectifying potassium channel KCNH2 (Homo sapiens, UniProt Q12809). Description: Inhibition of human ERG.
The target of data set [2] is T1, Voltage-gated inwardly rectifying potassium channel KCNH2. Description: Displacement of [3H]dofetilide from human ERG. For orientation: Loss of bound radioactivity is the signal in a displacement assay; it reports binding, not function.
Data set [3] in a line: Dissociation constant, pKa of the compound. The class given is physicochemical.
The target of data set [4] is C-C chemokine receptor type 5 (Homo sapiens, UniProt P51681). In words: Displacement of [125I]MIP-1beta from CCR5 receptor.
Data set [5] deals with Human immunodeficiency virus 1. In words: Antiviral activity against HIV1 BaL infected in peripheral blood lymphocytes assessed as inhibition of viral replication. The class given is functional. Conditions: Human immunodeficiency virus 1, BaL; call rule not given here.
Data set [6] concerns Human immunodeficiency virus 1. In words: Antiviral activity against CCR5-tropic HIV1 clade B infected in peripheral blood lymphocytes assessed as inhibition of viral replication. The class given is functional, organism-based. Conditions: Human immunodeficiency virus 1, clade B.
For data set [7], the system named is Human immunodeficiency virus 1. Description: Antiviral activity against CCR5-tropic HIV1 clade A infected in peripheral blood lymphocytes assessed as inhibition of viral replication. The class given is functional, organism-based. Conditions: Human immunodeficiency virus 1, clade A.
The target of a further data set is hERG (KCNH2) (Homo sapiens, UniProt Q12809). Description: Inhibition of human ERG at 1 uM.
hERG (KCNH2), sequence (Q12809 whole entry): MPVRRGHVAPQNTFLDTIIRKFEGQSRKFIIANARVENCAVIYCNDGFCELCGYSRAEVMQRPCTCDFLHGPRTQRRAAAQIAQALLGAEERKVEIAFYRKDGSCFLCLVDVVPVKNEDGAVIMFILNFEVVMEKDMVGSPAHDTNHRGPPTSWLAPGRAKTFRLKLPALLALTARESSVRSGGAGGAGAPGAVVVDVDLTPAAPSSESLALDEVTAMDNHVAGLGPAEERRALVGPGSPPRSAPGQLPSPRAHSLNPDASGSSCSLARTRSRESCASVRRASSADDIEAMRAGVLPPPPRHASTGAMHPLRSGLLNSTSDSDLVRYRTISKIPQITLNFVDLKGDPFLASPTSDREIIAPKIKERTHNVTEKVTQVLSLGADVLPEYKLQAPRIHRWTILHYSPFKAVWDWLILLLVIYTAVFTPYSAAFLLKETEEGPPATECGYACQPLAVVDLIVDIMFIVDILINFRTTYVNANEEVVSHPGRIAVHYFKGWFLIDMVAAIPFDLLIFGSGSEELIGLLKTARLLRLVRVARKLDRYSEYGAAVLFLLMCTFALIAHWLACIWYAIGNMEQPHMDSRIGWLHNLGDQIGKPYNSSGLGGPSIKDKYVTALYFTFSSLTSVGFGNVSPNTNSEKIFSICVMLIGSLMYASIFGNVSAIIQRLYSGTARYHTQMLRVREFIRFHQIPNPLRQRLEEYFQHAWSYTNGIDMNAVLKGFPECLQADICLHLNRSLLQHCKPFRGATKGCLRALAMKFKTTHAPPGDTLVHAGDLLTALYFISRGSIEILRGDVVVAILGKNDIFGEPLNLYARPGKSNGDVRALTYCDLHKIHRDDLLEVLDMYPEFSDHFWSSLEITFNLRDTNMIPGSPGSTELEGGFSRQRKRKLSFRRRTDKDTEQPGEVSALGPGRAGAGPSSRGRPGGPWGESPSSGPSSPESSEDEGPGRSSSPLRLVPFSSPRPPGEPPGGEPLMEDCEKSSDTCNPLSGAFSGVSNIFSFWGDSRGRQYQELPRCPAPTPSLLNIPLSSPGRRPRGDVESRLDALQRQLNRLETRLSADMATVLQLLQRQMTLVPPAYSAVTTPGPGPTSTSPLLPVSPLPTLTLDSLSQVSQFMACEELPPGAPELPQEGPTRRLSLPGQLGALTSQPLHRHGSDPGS

C-C chemokine receptor type 5, sequence (P51681 whole entry): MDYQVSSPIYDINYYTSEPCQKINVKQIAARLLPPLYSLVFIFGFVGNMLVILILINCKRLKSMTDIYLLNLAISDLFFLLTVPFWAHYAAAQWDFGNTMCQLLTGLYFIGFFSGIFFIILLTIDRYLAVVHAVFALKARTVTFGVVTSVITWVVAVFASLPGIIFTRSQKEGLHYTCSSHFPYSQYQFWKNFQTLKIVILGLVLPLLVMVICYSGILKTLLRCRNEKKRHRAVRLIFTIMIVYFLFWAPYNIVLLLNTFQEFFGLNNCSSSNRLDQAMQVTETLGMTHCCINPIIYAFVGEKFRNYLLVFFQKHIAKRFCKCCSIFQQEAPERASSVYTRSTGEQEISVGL
T1 sequence (Q12809 whole entry): as the sequence (Q12809 whole entry) above

`Cc1nc2ccccc2n1[C@@H]1C[C@H]2COC[C@@H](C1)N2CC[C@H](NC(=O)C1CCC1)c1ccccc1`: in data set [1], the “inhibition (INH)” value was “Active”. The same compound had a Ki in data set [2] of 42 nM. The pKa in data set [3] was determined as 6. Besides, the IC50 in data set [4] is 9 nM.

Take `Cc1nc2ccccc2n1[C@@H]1C[C@@H](C)N(CC[C@H](NC(=O)C2CCC2)c2ccccc2)[C@@H](C)C1`: the “inhibition (INH)” value in data set [1] was “Active”. Moreover, in data set [5], the IC90 was found to be 53 nM. This compound also returned an IC50 in data set [4] of 8 nM.

As to `Cc1nc2ccccc2n1C1CCN(CC[C@H](NC(=O)C2CCC2)c2ccccc2)CC1`, the IC90 in data set [5] came to 73 nM. The compound also displayed a 50% inhibitory concentration (IC50) in data set [4] of 20 nM.

Take `Cc1nc2ccccc2n1[C@@H]1C[C@H]2CC[C@@H](C1)N2CC[C@H](NC(=O)C1CCC1)c1ccccc1`: the “inhibition (INH)” value in data set [1] is reported as “Active”. The 90% effect concentration (IC90) in data set [5] amounted to 13 nM.

With `Cc1nc2ccccc2n1[C@H]1C[C@H]2CC[C@@H](C1)N2CC[C@H](NC(=O)C1CCC1)c1ccccc1`, the IC50 in data set [6] and in data set [7] was 0.9 nM each time. For the same compound, the “inhibition (INH)” value in data set [1] is listed as “Active”. This compound also registered a pKa in data set [3] of 7.8. Also, on hERG (KCNH2), the inhibition at 1 µM was found to be 99%. The IC90 in data set [5] was found to be 3 nM.

In the case of `Cc1nc2ccccc2n1C1CN(CC[C@H](NC(=O)C2CCC2)c2ccccc2)C1`, in data set [1], the “inhibition (INH)” value is given as “Active”. Besides, the IC50 in data set [4] is above 1000 nM.

In the case of `Cc1nc2ccccc2n1C1[C@H]2CN(CC[C@H](NC(=O)C3CCC3)c3ccccc3)C[C@@H]12` (some centres undefined), the “inhibition (INH)” value in data set [1] is given as “Active”. In addition, in data set [5], the IC90 is above 1000 nM. Moreover, in data set [4], the IC50 stood at 17 nM.

For `Cc1nc2ccccc2n1C1(C)CCN(CC[C@H](NC(=O)C2CCC2)c2ccccc2)CC1`, the “inhibition (INH)” value in data set [1] is given as “Active”. In data set [5], the IC90 amounted to 140 nM. Also, the IC50 in data set [4] was found to be 1.2 nM.

As for `Cc1nc2ccccc2n1[C@@H]1C[C@H]2CSC[C@@H](C1)N2CC[C@H](NC(=O)C1CCC1)c1ccccc1`, the “inhibition (INH)” value in data set [1] is recorded as “Active”. The IC50 in data set [4] is 21.5 nM.

As to `Cc1nc2ccccc2n1[C@H]1C[C@H]2COC[C@@H](C1)N2CC[C@H](NC(=O)C1CCC1)c1ccccc1`, in data set [1], the “inhibition (INH)” value is on record as “Active”. Besides, the half-maximal inhibitory concentration (IC50) in data set [4] worked out at 39.7 nM.
